Experimental findings from patent US9676725B2, “S-crystal form of ivabradine hydrochloride, and preparation method and pharmaceutical composition thereof” (Beijing Lunarsun Pharmaceutical Co., LTD., priority 2014, dated 2017) are described below.

What all share (assay type): physicochemical
The nature of data set [1]: High-temperature stability test at 60° C. As to conditions: for Content / Properties / Relevant substances: Max single impurity / Relevant substances: Total impurities: 60° C. An excerpt: Thus, the product could be stored stably in storehouse at room temperature.
Data set [2] in a line: Humidity stability test (moisture and XRD). As to conditions: for Moisture: open, humidity 43.1±0.5%, room temperature (20° C.); for Change of crystal form on water absorption: stored in open condition under humidity 43.1±0.5%, water content up to 3%, hydrochloride. Here is the method:
The S crystal form of ivabradine hydrochloride as prepared in Example 2 was spread on watch glass to form a thin layer and placed in the upper part of a desiccator, and saturated potassium carbonate solution was placed in the lower part of the desiccator, the humidity in the desiccator was detected (humidity: 43.1±0.5%), conditions were controlled at room temperature (20° C.) and constant humidity, and samples were taken at 1 h, 8 h, 16 h, 24 h, 48 h, 96 h for moisture and XRD tests, and the results are shown in the following table.

The nature of data set [3]: Storage of crystal form at room temperature (crystal form transformation). As to conditions: 10 days storage at room temperature. An excerpt: Although many crystal forms have been reported in the documents, their stability and preparation methods are not satisfied. […] Delta crystal form contains acetonitrile which can hardly be removed, and it is difficult to distinguish from acetonitrile-containing crystal form. In addition, ivabradine hydrochloride as a hydrochloride is very easy to absorb moisture, while the change of water content may result in changes of many crystal forms, for example, the change between γd and γ, the change between βd and β.

In the case of `COc1cc2c(cc1OC)CC(=O)N(CCCN(C)C[C@H]1Cc3cc(OC)c(OC)cc31)CC2.Cl` [3-{3-[{[(7S)-3,4-dimethoxybicyclo[4.2.0]octa-1,3,5-trien-7-yl]-methyl}(methyl)-amino]propyl}-7,8-dimethoxy-1,3,4,5-tetrahydro-2H-3-benzazepin-2-one hydrochloride], the results for the Content in data set [1] (the 0th day), in data set [1] (the 5th day) and in data set [1] (the 10th day) were 99.50%, 99.40% and 99.50%, respectively. In addition, the Properties entry in data set [1] (the 0th day), in data set [1] (the 5th day) and in data set [1] (the 10th day) was “White” each time. The “Relevant substances: Max single impurity” value was found to be 0.04% in data set [1] (the 0th day), 0.05% in data set [1] (the 5th day) and 0.05% in data set [1] (the 10th day). Also, the “Relevant substances: Total impurities” value in data set [1] (the 0th day) came to 0.19%; in data set [1] (the 5th day) it was 0.20%; in data set [1] (the 10th day), 0.20%. Moreover, the “Change of indicators, e.g. purity, versus the 0th day” value in data set [1] (stored at 60° C. for 10 days) was “did not change significantly”. Also, the “Stability of crystal form” value in data set [1] (stored at 60° C. for 10 days) was “very stable”. Further, the Moisture was 0.46% in data set [2] (1 h); 0.55% in data set [2] (8 h); 0.60% in data set [2] (16 h); 0.82% in data set [2] (24 h); 1.4% in data set [2] (48 h); 3.0% in data set [2] (96 h). Further, the “Change of crystal form on water absorption” value in data set [2] (listed as S crystal form) is “does not change”; in data set [2] (listed as the product) it was “did not change”.
With `COc1cc2c(cc1OC)CC(=O)N(CCCN(C)C[C@H]1Cc3cc(OC)c(OC)cc31)CC2.Cl` [δd crystal form, 3-{3-[{[(7S)-3,4-dimethoxybicyclo[4.2.0]octa-1,3,5-trien-7-yl]-methyl}(methyl)-amino]propyl}-7,8-dimethoxy-1,3,4,5-tetrahydro-2H-3-benzazepin-2-one hydrochloride], the “Crystal form transformation on storage” value in data set [3] was “most of the δd crystal form will transform into α crystal form”.
